In general, inhibition refers to the change of the read-out against control, counted positive when it falls. Usually half-life stands for the time needed for the level to fall by half in the phase considered. High values mean slow decline, low ones rapid decline. Usually microsomal CLint stands for the capacity of the preparation to metabolise the compound, expressed as a volume cleared per time. The Ki is the equilibrium dissociation constant of an inhibitor or competing ligand from its target. The IC50 is the concentration at which inhibition is half-maximal. High values mean weaker potency, low ones greater potency.

For data set [1], the target named is T1, norepinephrine transporter (NET) (Homo sapiens, UniProt P23975).
T1 construct: expressed in transfected cells; host or cells: HEK293
Briefly: Fluorescent substrate uptake inhibition, NET. The format is cell-based. As to conditions: for inhibition at 10 µM: HEK293 cells expressing NET. The method, then:
(§1) Uptake Inhibition. The ability of test compounds to block monoamine uptake by SERT, NET, DAT, and VMAT2 was determined using the Neurotransmitter Transporter Uptake Assay Kit manufactured by Molecular Devices (Cat #R8173). Briefly, stably transfected cells expressing the MAT of interest (HEK293 cells for SERT and NET; CHO cells for DAT) were grown and plated into 384-well plates at a concentration of 20,000 cells per well. Plates were then incubated for 16-20 h at 37° C. and 5% CO2. The medium was then aspirated and replaced with 25 μL of assay buffer (20 mM HEPES in HBSS, containing 0.1% BSA) containing the test compounds at the appropriate concentrations. Plates were then centrifuged at 300 rpm for 15 s and then incubated at 37° C. for 30 minutes. At this time, 25 μL of the proprietary fluorescent dye solution was added, the plates were incubated at 37° C. for 60 minutes, and then fluorescence was quantified on a plate reader (excitation wavelength=440 nm, emission wavelength=520 nm). The proprietary dye solution contains a mixture of 1) a fluorescent dye that mimics the endogenous substrates of MATs and is thereby actively transported to the intracellular compartment in the absence of an inhibitor and 2) a masking dye that inhibits the fluorescence of dye 1 in the extracellular compartment. Therefore, the overall fluorescence of the system increases as the fluorescent dye is transported into the cells.

The target in data set [2] is T2, vesicular monoamine transporter 2 (VMAT2) (Homo sapiens, UniProt Q05940).
T2 construct: expressed in transfected cells
Briefly: Fluorescent substrate uptake inhibition, VMAT2. It is filed as cell-based. As to conditions: for inhibition at 10 µM: transfected cells. The method, then: as §1

The nature of data set [3]: HLM stability (Low Activity, Alternative Method). It is filed as in vitro ADME. The note with it: both sexes, human, liver microsomes, pH 7.4, Condition 1 column, values marked *: Low Activity, 0.50 mg protein/mL. The protocol:
(§2) HLM Stability (Low Activity, Alternative Method). Pooled HLM from adult male and female donors (Corning 452117) were used. Microsomal incubations were carried out in multi-well plates. Liver microsomal incubation medium consisted of PBS (100 mM, pH 7.4), MgCl2 (1 mM), and NADPH (1 mM), with 0.50 mg of liver microsomal protein per mL. Control incubations were performed by replacing the NADPH-cofactor system with PBS. Test compounds (1 μM, final solvent concentration 1.0%) were incubated with microsomes at 37° C. with constant shaking. Six time points over 60 minutes were analyzed, with 60 μL aliquots of the reaction mixture being drawn at each time point. The reaction aliquots were stopped by adding 180 μL of cold (4° C.) acetonitrile containing 200 ng/mL tolbutamide and 200 ng/mL labetalol as internal standards (IS), followed by shaking for 10 minutes, and then protein sedimentation by centrifugation at 4000 rpm for 20 minutes at 4° C. Supernatant samples (80 μL) were diluted with water (240 μL) and analyzed for parent compound remaining using a fit-for-purpose liquid chromatography-tandem mass spectrometry (LC-MS/MS) method.
(§3) Data Analysis. The elimination constant (kel), half-life (t1/2) and intrinsic clearance (Clint) were determined in a plot of […] versus time, using linear regression analysis.

In data set [4] the target is MK-801 binding site of the N-methyl-D-aspartate receptor (NMDAR). Briefly: NMDAR radioligand binding with [3H]MK-801, Method B. The arrangement: species or system Sprague Dawley rat. The note with it: MK-801 site, Method B, male Sprague Dawley rat cortex, 5.0 nM [3H]MK-801; read-out: NMDAR Ki ± SEM. The method, then: Radioligand Binding—Method B. Affinity of the test compounds for NMDAR was determined in radioligand binding experiments with [^3H]MK-801 by WuXi AppTec (Hong Kong) Limited, under the conditions described in Table 13.

In data set [5] the target is T3, serotonin transporter (SERT) (Homo sapiens, UniProt P31645).
T3 construct: expressed in transfected cells; host or cells: HEK293
Briefly: Fluorescent substrate uptake inhibition, SERT. The format is cell-based. The note with it: for inhibition at 10 µM: HEK293 cells expressing SERT. The protocol:
as §1

Data set [6] concerns the target T4, dopamine transporter (DAT) (Homo sapiens, UniProt Q01959).
T4 construct: expressed in transfected cells; host or cells: CHO (uptake)
Briefly: Fluorescent substrate uptake inhibition, DAT. The note with it: for inhibition at 10 µM: CHO cells expressing DAT. It is filed as cell-based. The method, then:
as §1

Data set [7] is described as follows: MLM stability (Low Activity). The note with it: male, CD-1, mouse, liver microsomes, pH 7.4, Condition 1 (Low Activity), 0.50 mg protein/mL. It is filed as in vitro ADME, CD-1 mice. The method, then:
as §2, with “MLM” for “HLM”, “Activity).” for “Activity, Alternative Method).”, “from” for “from adult”, “CD-1 mice (XenoTech M1000)” for “and female donors (Corning 452117)”
as §3

Data set [8] in a line: RLM stability (Low Activity). It is filed as in vitro ADME, Sprague Dawley rats. The note with it: male, Sprague Dawley, rat, liver microsomes, pH 7.4, Condition 1 (Low Activity), 0.50 mg protein/mL. The method, then:
as §2, with “RLM” for “HLM”, “Activity).” for “Activity, Alternative Method).”, “from” for “from adult”, “Sprague Dawley rats (XenoTech R1000)” for “and female donors (Corning 452117)”
as §3

SMILES strings stand for the structures. A value given as a limit tells only on which side of the number the result lay.

T1 sequence (P23975 whole entry, species assumed): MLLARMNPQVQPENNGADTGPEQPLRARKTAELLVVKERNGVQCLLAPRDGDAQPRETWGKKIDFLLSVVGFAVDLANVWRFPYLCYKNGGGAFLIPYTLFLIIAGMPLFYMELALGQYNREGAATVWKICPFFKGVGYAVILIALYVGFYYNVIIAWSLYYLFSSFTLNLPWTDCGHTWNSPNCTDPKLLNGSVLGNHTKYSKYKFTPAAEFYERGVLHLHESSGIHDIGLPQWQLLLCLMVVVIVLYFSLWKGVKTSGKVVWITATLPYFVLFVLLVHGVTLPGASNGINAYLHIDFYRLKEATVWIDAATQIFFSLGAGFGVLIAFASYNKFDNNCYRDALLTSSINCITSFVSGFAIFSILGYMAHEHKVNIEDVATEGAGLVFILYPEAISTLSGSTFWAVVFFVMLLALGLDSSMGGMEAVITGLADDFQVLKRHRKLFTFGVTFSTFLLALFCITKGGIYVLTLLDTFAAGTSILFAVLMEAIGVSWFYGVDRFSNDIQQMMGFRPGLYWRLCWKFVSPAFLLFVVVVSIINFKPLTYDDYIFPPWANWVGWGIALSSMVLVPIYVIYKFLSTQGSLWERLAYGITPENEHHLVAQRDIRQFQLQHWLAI
T3 sequence (P31645 whole entry, species assumed): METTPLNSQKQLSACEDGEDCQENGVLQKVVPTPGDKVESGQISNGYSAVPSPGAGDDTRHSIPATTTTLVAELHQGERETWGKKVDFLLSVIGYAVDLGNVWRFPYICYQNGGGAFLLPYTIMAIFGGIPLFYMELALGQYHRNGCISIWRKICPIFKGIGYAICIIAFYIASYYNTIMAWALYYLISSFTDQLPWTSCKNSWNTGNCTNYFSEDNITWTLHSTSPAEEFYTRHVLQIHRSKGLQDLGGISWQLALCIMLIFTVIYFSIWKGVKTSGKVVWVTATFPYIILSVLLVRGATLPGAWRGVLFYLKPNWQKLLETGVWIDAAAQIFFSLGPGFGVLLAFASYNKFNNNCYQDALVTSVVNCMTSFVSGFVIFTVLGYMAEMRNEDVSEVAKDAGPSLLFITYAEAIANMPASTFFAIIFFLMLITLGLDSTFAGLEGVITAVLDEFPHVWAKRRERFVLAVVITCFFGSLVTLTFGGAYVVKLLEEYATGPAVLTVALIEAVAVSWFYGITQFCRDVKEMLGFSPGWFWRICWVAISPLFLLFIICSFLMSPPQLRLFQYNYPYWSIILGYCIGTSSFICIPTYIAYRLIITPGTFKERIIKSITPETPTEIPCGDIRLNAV
T4 sequence (Q01959 whole entry, species assumed): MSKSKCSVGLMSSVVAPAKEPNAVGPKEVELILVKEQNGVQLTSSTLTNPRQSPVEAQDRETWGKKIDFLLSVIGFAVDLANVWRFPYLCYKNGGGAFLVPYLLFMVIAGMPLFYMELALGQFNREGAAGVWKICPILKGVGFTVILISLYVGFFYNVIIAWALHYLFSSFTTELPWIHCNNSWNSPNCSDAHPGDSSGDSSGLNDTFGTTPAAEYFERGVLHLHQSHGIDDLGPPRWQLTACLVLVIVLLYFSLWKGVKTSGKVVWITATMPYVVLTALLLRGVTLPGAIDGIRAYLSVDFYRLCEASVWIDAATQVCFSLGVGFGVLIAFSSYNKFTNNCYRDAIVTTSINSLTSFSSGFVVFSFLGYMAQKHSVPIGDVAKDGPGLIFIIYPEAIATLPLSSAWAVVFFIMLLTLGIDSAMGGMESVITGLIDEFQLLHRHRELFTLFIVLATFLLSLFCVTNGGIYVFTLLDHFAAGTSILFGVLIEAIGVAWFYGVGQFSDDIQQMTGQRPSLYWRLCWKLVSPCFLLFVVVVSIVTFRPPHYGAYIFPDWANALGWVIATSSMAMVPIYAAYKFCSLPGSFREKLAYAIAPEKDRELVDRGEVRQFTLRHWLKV
T2 sequence (Q05940 whole entry, species assumed): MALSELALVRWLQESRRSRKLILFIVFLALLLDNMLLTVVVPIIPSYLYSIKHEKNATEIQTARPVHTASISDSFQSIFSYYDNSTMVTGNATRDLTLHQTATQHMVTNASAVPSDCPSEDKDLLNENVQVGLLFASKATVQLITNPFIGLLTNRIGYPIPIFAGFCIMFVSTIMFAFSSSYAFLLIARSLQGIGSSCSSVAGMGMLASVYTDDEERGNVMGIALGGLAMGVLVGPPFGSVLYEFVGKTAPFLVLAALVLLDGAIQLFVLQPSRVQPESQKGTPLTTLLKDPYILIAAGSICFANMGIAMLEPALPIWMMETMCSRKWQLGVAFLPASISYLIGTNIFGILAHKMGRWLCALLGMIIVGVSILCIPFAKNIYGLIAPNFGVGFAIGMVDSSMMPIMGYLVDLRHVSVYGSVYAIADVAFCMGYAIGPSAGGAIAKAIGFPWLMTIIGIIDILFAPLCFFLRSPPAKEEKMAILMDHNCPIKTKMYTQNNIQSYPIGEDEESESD

As to `NC1(c2ccc(F)cc2)CCCCC1=O` (racemic) [Compound 117rac, 2-amino-2-(4-fluorophenyl)cyclohexan-1-one], the inhibition at 10 µM in data set [1] is 5%; in data set [2], 17.1%; in data set [5], -0.91%; in data set [6] it was 6.8%. For the same compound, the half-life at 1 μM in data set [3], in data set [7] and in data set [8] was > 145 min in each case. Also, the intrinsic clearance (microsomal CLint) at 1 μM in data set [3], in data set [7] and in data set [8] was < 9.6 µL/min/mg each time. Further, in data set [4], the Ki was determined as 8.4 µM.
Consider `Cc1cccc(C2(N)CCCCC2=O)c1` (racemic) [Compound 118rac, 2-amino-2-(m-tolyl)cyclohexan-1-one], for which the inhibition at 10 µM in data set [1] was found to be 19.5%; in data set [2], 36.6%; in data set [5] it was 16.9%; in data set [6], 23.8%. In addition, the half-life at 1 μM was > 145 min in data set [3], 84.4 min in data set [7] and 7.2 min in data set [8]. Also, the microsomal CLint at 1 μM was < 9.6 µL/min/mg in data set [3], 16.4 µL/min/mg in data set [7] and 192 µL/min/mg in data set [8]. Moreover, in data set [4], the Ki was determined as 4.5 µM.
As for `CNC1(c2ccc(C)cc2)CCCCC1=O` (racemic) [Compound 119rac, 2-(methylamino)-2-(p-tolyl)cyclohexan-1-one], the inhibition at 10 µM in data set [1] was 5%; in data set [2], 48.1%; in data set [5], 42%; in data set [6], 10.3%. The half-life at 1 μM was > 145 min in data set [3], 75.5 min in data set [7] and 3.3 min in data set [8]. The results for the microsomal CLint at 1 μM in data set [3], in data set [7] and in data set [8] were < 9.6 µL/min/mg, 18.4 µL/min/mg and 417 µL/min/mg, respectively. Also, in data set [4], the inhibitory constant (Ki) is 16.7 µM.
`Cc1ccc(C2(N)CCCCC2=O)cc1` (racemic) [Compound 120rac, 2-amino-2-(p-tolyl)cyclohexan-1-one]: the inhibition at 10 µM in data set [1] is 7.1%; in data set [2] it was 41%; in data set [5], 27.5%; in data set [6], 5.3%. The half-life at 1 μM was > 145 min in data set [3], 112 min in data set [7] and 3.6 min in data set [8]. The figures for the intrinsic clearance (microsomal CLint) at 1 μM in data set [3], in data set [7] and in data set [8] were < 9.6 µL/min/mg, 12.4 µL/min/mg and 380 µL/min/mg, respectively. The inhibitory constant (Ki) in data set [4] was 23 µM.
Consider `CC1CN(C2(c3ccccc3)CCCCC2=O)C1` (racemic) [Compound 129rac, 2-(3-methylazetidin-1-yl)-2-phenyl-cyclohexan-1-one], for which the inhibition at 10 µM in data set [1] was 10.6%; in data set [2] it was 31.9%; in data set [5] it was 28%; in data set [6], 35.8%. Besides, the figures for the half-life at 1 μM in data set [3], in data set [7] and in data set [8] were 134 min, 9.3 min and 24.1 min, respectively. For the same compound, the intrinsic metabolic clearance (microsomal CLint) at 1 μM in data set [3] came out at 10.4 µL/min/mg; in data set [7] it was 149 µL/min/mg; in data set [8], 57.5 µL/min/mg. The inhibition constant Ki in data set [4] stood at 0.52 µM.
On to `CCN(CC)[C@@]1(c2ccccc2)CCCCC1=O` [Compound 25R, (R)-2-(diethylamino)-2-phenylcyclohexanone], for which the inhibition at 10 µM in data set [1] is 20.8%; in data set [2] it was -10.3%; in data set [5], 26.9%; in data set [6], 20.8%. Besides, the figures for the half-life at 1 μM in data set [3], in data set [7] and in data set [8] were 49 min, 8.5 min and 15.3 min, respectively. Moreover, the microsomal CLint at 1 μM in data set [3] was 28.3 µL/min/mg; in data set [7], 163 µL/min/mg; in data set [8], 90.3 µL/min/mg. The inhibition constant (Ki) in data set [4] came to 5.5 µM.
For `CCN(CC)[C@]1(c2ccccc2)CCCCC1=O` [Compound 25S, (S)-2-(diethylamino)-2-phenylcyclohexanone], the inhibition at 10 µM in data set [1] was -0.13%; in data set [2], 1.7%; in data set [5] it was 45.6%; in data set [6] it was 24.9%. The half-life at 1 μM in data set [3] was found to be 42 min; in data set [7], 8.6 min; in data set [8], 14.5 min. The microsomal CLint at 1 μM is 33 µL/min/mg in data set [3], 161 µL/min/mg in data set [7] and 95.4 µL/min/mg in data set [8]. In data set [4], the Ki was determined as 5.2 µM.
Consider `O=C1CCCC[C@]1(c1ccccc1)N1CCCC1` [Compound 27R, (R)-2-phenyl-2-(pyrrolidin-1-yl)cyclohexan-1-one], for which the 50% inhibitory concentration (IC50) was determined as 17.3 µM in data set [1], 18.1 µM in data set [2], 2.1 µM in data set [5] and 21 µM in data set [6]. In addition, the half-life at 1 μM in data set [3] is > 145 min; in data set [7], 40.4 min; in data set [8], 55.9 min. Further, the microsomal CLint at 1 μM was < 9.6 µL/min/mg in data set [3], 34.3 µL/min/mg in data set [7] and 24.8 µL/min/mg in data set [8]. For the same compound, in data set [4], the Ki amounted to 3.1 µM.
Turning to `O=C1CCCC[C@@]1(c1ccccc1)N1CCCC1` [Compound 27S, (S)-2-phenyl-2-(pyrrolidin-1-yl)cyclohexan-1-one], the half-inhibitory concentration (IC50) is 8.5 µM in data set [1], 19.3 µM in data set [2], 0.041 µM in data set [5] and 10.9 µM in data set [6]. The half-life at 1 μM is > 145 min in data set [3], 41 min in data set [7] and 53.7 min in data set [8]. Besides, the microsomal CLint at 1 μM in data set [3] was < 9.6 µL/min/mg; in data set [7], 33.8 µL/min/mg; in data set [8], 25.8 µL/min/mg. In addition, in data set [4], the Ki came out at 1.1 µM.

The record behind these values is patent US11344510B2, “Arylcyclohexylamine derivatives and their use in the treatment of psychiatric disorders” (Gilgamesh Pharmaceuticals, Inc., priority 2019, dated 2022).
